Data published in the NIST ThermoML archive (doi:10.1021/je700152c).

Assay: molar heat capacity at saturation pressure; xn = mol fraction of the nth substance listed

CCCCn1cc[n+](C)c1.Cc1ccc(S(=O)(=O)[O-])cc1 [1-butyl-3-methylimidazolium tosylate] + O
Conditions	molar heat capacity [J/K/mol]
294.67 K, Crystal, x1 = 0.3	204.91
294.68 K, Crystal, x1 = 0.83	580.85
294.91 K, Crystal, x1 = 0.37	561.1
295.64 K, Crystal, x1 = 0.37	590.88
295.82 K, Liquid, x1 = 0.3	198.57
296.25 K, Crystal, x1 = 0.83	574.07
296.33 K, Crystal, x1 = 0.37	593.15
296.53 K, Metastable crystal, x1 = 0.83	425.47
296.97 K, Liquid, x1 = 0.3	199.1
297.06 K, Crystal, x1 = 0.37	577.63
297.82 K, Crystal, x1 = 0.37	542.42
297.88 K, Crystal, x1 = 0.83	481.52
298.13 K, Liquid, x1 = 0.3	199.52
298.45 K, Metastable crystal, x1 = 0.83	435.64
298.66 K, Crystal, x1 = 0.37	429.59
299.28 K, Liquid, x1 = 0.3	199.84
299.67 K, Crystal, x1 = 0.83	439.03
299.68 K, Crystal, x1 = 0.37	268.68
300.26 K, Metastable crystal, x1 = 0.83	440.59
301.01 K, Liquid, x1 = 0.3	200.58
301.5 K, Crystal, x1 = 0.83	445.81
301.5 K, Liquid, x1 = 0.37	233.85
302.51 K, Metastable crystal, x1 = 0.83	454.93
303.31 K, Crystal, x1 = 0.83	454.15
303.34 K, Liquid, x1 = 0.3	201.21
304 K, Liquid, x1 = 0.37	232.59
305.11 K, Crystal, x1 = 0.83	462.49
305.64 K, Liquid, x1 = 0.3	201.95
306.39 K, Metastable crystal, x1 = 0.83	484.39
306.5 K, Liquid, x1 = 0.37	233.6
306.89 K, Crystal, x1 = 0.83	471.88
307.94 K, Liquid, x1 = 0.3	202.8
308.65 K, Crystal, x1 = 0.83	484.39
309 K, Liquid, x1 = 0.37	234.48
309.82 K, Metastable crystal, x1 = 0.83	516.2
310.24 K, Liquid, x1 = 0.3	203.54
310.39 K, Crystal, x1 = 0.83	497.69
311.5 K, Liquid, x1 = 0.37	235.37
312.09 K, Crystal, x1 = 0.83	512.81
312.54 K, Liquid, x1 = 0.3	204.38
313.06 K, Metastable crystal, x1 = 0.83	550.87
313.75 K, Crystal, x1 = 0.83	529.23
313.99 K, Liquid, x1 = 0.37	236.25
314.83 K, Liquid, x1 = 0.3	205.13
315.4 K, Crystal, x1 = 0.83	549.31
316.18 K, Metastable crystal, x1 = 0.83	596.49
316.49 K, Liquid, x1 = 0.37	237.13
317.02 K, Crystal, x1 = 0.83	571.21
317.13 K, Liquid, x1 = 0.3	205.87
318.6 K, Crystal, x1 = 0.83	596.23
318.98 K, Liquid, x1 = 0.37	238.14
319.16 K, Metastable crystal, x1 = 0.83	653.33
319.42 K, Liquid, x1 = 0.3	206.82
320.13 K, Crystal, x1 = 0.83	624.39
321.47 K, Liquid, x1 = 0.37	239.03
321.62 K, Crystal, x1 = 0.83	655.93
321.7 K, Liquid, x1 = 0.3	207.45
321.99 K, Metastable crystal, x1 = 0.83	719.81
323.06 K, Crystal, x1 = 0.83	690.35
323.96 K, Liquid, x1 = 0.37	239.91
323.99 K, Liquid, x1 = 0.3	208.19
324.46 K, Crystal, x1 = 0.83	727.63
324.62 K, Metastable crystal, x1 = 0.83	811.31
325.81 K, Crystal, x1 = 0.83	774.82
326.27 K, Liquid, x1 = 0.3	209.04
326.44 K, Liquid, x1 = 0.37	240.92
327.04 K, Metastable crystal, x1 = 0.83	934.11
327.1 K, Crystal, x1 = 0.83	828.52
328.33 K, Crystal, x1 = 0.83	892.65
328.55 K, Liquid, x1 = 0.3	209.99
328.93 K, Liquid, x1 = 0.37	241.8
329.23 K, Metastable crystal, x1 = 0.83	1093.4
329.5 K, Crystal, x1 = 0.83	965.13
330.61 K, Crystal, x1 = 0.83	1053
330.82 K, Liquid, x1 = 0.3	210.94
331.17 K, Metastable crystal, x1 = 0.83	1295.7
331.41 K, Liquid, x1 = 0.37	242.69
331.64 K, Crystal, x1 = 0.83	1141.9
332.6 K, Crystal, x1 = 0.83	1224.8
332.82 K, Metastable crystal, x1 = 0.83	1513.7
333.09 K, Liquid, x1 = 0.3	212.21
333.26 K, Crystal, x1 = 0.83	1386.4
333.89 K, Liquid, x1 = 0.37	243.57
334.14 K, Crystal, x1 = 0.83	1617.9
334.32 K, Metastable crystal, x1 = 0.83	1881.5
335.19 K, Crystal, x1 = 0.83	1296.5
335.35 K, Liquid, x1 = 0.3	213.8
336.19 K, Crystal, x1 = 0.83	1133.3
336.37 K, Liquid, x1 = 0.37	244.45
336.41 K, Metastable crystal, x1 = 0.83	678.36
337.35 K, Crystal, x1 = 0.83	711.99
337.61 K, Liquid, x1 = 0.3	215.06
338.19 K, Crystal, x1 = 0.83	480.74
338.85 K, Liquid, x1 = 0.37	245.21
339.63 K, Liquid, x1 = 0.83	464.32
339.88 K, Liquid, x1 = 0.3	213.58
340.02 K, Liquid, x1 = 0.83	459.1
341.32 K, Liquid, x1 = 0.37	246.09
341.87 K, Liquid, x1 = 0.83	460.41
342.14 K, Liquid, x1 = 0.3	213.58
342.82 K, Liquid, x1 = 0.83	461.71
343.71 K, Liquid, x1 = 0.83	461.71
343.8 K, Liquid, x1 = 0.37	246.98
344.41 K, Liquid, x1 = 0.3	214.32
345.56 K, Liquid, x1 = 0.83	462.75
345.93 K, Liquid, x1 = 0.83	463.79
346.27 K, Liquid, x1 = 0.37	247.86
346.67 K, Liquid, x1 = 0.3	214.96
347.4 K, Liquid, x1 = 0.83	464.06
348.75 K, Liquid, x1 = 0.37	248.62
348.93 K, Liquid, x1 = 0.3	215.7
349.04 K, Liquid, x1 = 0.83	465.88
349.25 K, Liquid, x1 = 0.83	465.36
351.1 K, Liquid, x1 = 0.83	466.66
351.19 K, Liquid, x1 = 0.3	216.44
351.22 K, Liquid, x1 = 0.37	249.38
352.16 K, Liquid, x1 = 0.83	467.97
352.94 K, Liquid, x1 = 0.83	467.71
353.44 K, Liquid, x1 = 0.3	217.07
353.69 K, Liquid, x1 = 0.37	250.51
354.79 K, Liquid, x1 = 0.83	469.01
355.28 K, Liquid, x1 = 0.83	469.79
355.69 K, Liquid, x1 = 0.3	217.81
356.16 K, Liquid, x1 = 0.37	251.4
356.63 K, Liquid, x1 = 0.83	470.31
357.94 K, Liquid, x1 = 0.3	218.55
358.39 K, Liquid, x1 = 0.83	471.88
358.47 K, Liquid, x1 = 0.83	471.62
358.63 K, Liquid, x1 = 0.37	252.4
360.18 K, Liquid, x1 = 0.3	219.19
360.31 K, Liquid, x1 = 0.83	472.92
361.09 K, Liquid, x1 = 0.37	253.04
361.5 K, Liquid, x1 = 0.83	473.7
362.15 K, Liquid, x1 = 0.83	474.22
362.42 K, Liquid, x1 = 0.3	219.82
363.55 K, Liquid, x1 = 0.37	253.92
363.99 K, Liquid, x1 = 0.83	475.27
364.61 K, Liquid, x1 = 0.83	475.79
364.66 K, Liquid, x1 = 0.3	220.25
365.82 K, Liquid, x1 = 0.83	476.31
366 K, Liquid, x1 = 0.37	254.68
366.89 K, Liquid, x1 = 0.3	221.09
367.72 K, Liquid, x1 = 0.83	477.87
368.46 K, Liquid, x1 = 0.37	255.69
